Columns and labels:
Lmna G609G/G609G mouse = system: Lmna G609G/G609G mouse; parameters: method as in PMID 27617860; conditions: intraperitoneal injection; cited from earlier work
Plasma stability, human = assay type: in vitro ADME
Method: For PK analysis, 5 mg/kg of JH4 in 10% DMSO, 5% […] solution were intravenously injected and 10 mg/kg of JH4 in 10% NMP and 90% PEG400 solution were orally delivered. At pre-set time-points, blood concentration of JH4 was determined by LC-MS/MS analysis[22],[23]. Other chemicals were also tested using similar protocol. In vitro ADME studies (plasma protein binding, CYP inhibition, microsomal stability, plasma stability, and hERG inhibition) were performed by New Drug Development Center (Daegu, Korea) using standard protocols[24],[25].

HGPS cells = assay: RT-PCR of progerin/prelamin A, CENP-A, IL-6, IL-8, BRCA1 transcripts; assay type: cell-based, human
Method: For RT-PCR, total cellular RNA was extracted using RNA extraction kit (Qiagen). Gene expression studies were performed using cDNA synthesized from total RNA with MMLV RT (Invitrogen, Carlsbad, USA) and random hexamers. PCR from genomic DNA was perform using DiaStar Taq DNA polymerase (SolGent, Daejeon, Korea) and 50 ng of cDNA. Wild-type prelamin A cDNA was synthesized by PCR amplification using a forward primer, 5′-[…]-3′ and a reverse primer, 5′-[…]-3′. The thermal cycling conditions were as follows: 94°C for 3 min (activation), 94°C for 1 min (denaturation), 61°C for 1 min (annealing) and 72°C for 42 sec (extension) up to 35 cycles. The PCR products were analyzed through 2% agarose electrophoresis and DNA was visualized by ethidium bromide staining and UV photography. Levels of other transcripts were also performed with the following oligonucleotide primers: CENP-A, 5′-[…]-3′ and 5′-[…]-3′; BRCA1, 5′-[…]-3′ and 5′-[…]-3′; IL-6, 5′-[…]-3′ and 5′-[…]-3′; IL-8, 5′-[…]-3′ and 5′-[…]-3′ and GAPDH 5′-[…]-3′ and 5′-[…]-3′.
Fig. S3. Chemical screening with JH4 derivatives (a total of 53 chemicals except JH010 and SLC -D011 were used). A. Summarized tables for effects of JH4 derivatives. ‘+’ means s t re ngt h of binding affinity or expression level after treatment of chemicals. […]

| SMILES | Extension of life span (Lmna G609G/G609G mouse) | Increase of life span (Lmna G609G/G609G mouse) | remaining at 0.5 h (Plasma stability, human; 30min) [%] | remaining at 2 h (Plasma stability, human; 120min) [%] | mRNA expression of progerin (HGPS cells) |
| --- | --- | --- | --- | --- | --- |
| CC1(C)Oc2cc3oc(=O)ccc3cc2CC1OC(=O)C=Cc1cccnc1 (centres unmarked) [JH4] | ~ 4 weeks | ~ 25% |  |  |  |
| CC1(C)Oc2cc3oc(=O)ccc3cc2C[C@@H]1OC/C=C/c1ccccc1 [SLC-D011] |  |  | > 100 | > 100 | without alteration of mRNA expression of progerin |
